# Data from article PMC5513037, “Examining the influence of specificity ligands and ATP-competitive ligands on the overall effectiveness of bivalent kinase inhibitors” (Proteome Science, 2017).
# Assays:
# Assay in all cases: KAM-matrix competition in K562 lysate;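 as to 0.001 uM KAM: median log10 fold change of treatment over DMSO control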;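 as to 0.01 uM KAM: median log10 fold change of treatment over DMSO control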;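 as to 0.1 uM KAM: median log10 fold change of treatment over DMSO control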;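 as to 1 uM KAM: median log10 fold change of treatment over DMSO control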;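 as to 10 uM KAM: median log10 fold change of treatment over DMSO control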
# Assay type in all cases: binding
# [1] = biological target: T1, MAST2 (Homo sapiens, UniProt Q6P0Q8);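 as to 0.001 uM KAM: median log10 fold change of treatment over DMSO control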;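 as to 0.01 uM KAM: median log10 fold change of treatment over DMSO control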;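 as to 0.1 uM KAM: median log10 fold change of treatment over DMSO control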;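 as to 1 uM KAM: median log10 fold change of treatment over DMSO control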;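 as to 10 uM KAM: median log10 fold change of treatment over DMSO control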
# T1 construct: endogenous in cells; host or cells: K562 cells (combined S0.8 and P0.8 lysate)
# Protocol: (§1) Supplement 12953_2017_125_MOESM1_ESM.zip/MS_Supp Info.xlsx, sheet "KAM" | column: 10 uM KAM; 1 uM KAM; 0.1 uM KAM; 0.01 uM KAM; 0.001 uM KAM; RB50
# [2] = biological target: T2, MARK3 (Homo sapiens, UniProt P27448)
# T2 construct: endogenous in cells; host or cells: K562
# Protocol: as §1
# [3] = biological target: T3, CSNK2A1 (Homo sapiens, UniProt P68400)
# T3 construct: endogenous in cells; host or cells: K562
# Protocol: as §1
# [4] = biological target: T4, OBSCN (Homo sapiens, UniProt Q5VST9);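 as to 0.001 uM KAM: median log10 fold change of treatment over DMSO control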;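 as to 0.01 uM KAM: median log10 fold change of treatment over DMSO control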;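 as to 0.1 uM KAM: median log10 fold change of treatment over DMSO control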;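 as to 1 uM KAM: median log10 fold change of treatment over DMSO control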;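 as to 10 uM KAM: median log10 fold change of treatment over DMSO control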
# T4 construct: endogenous in cells; host or cells: K562
# Protocol: as §1
# [5] = biological target: T5, AURKA (Homo sapiens, UniProt O14965)
# T5 construct: endogenous in cells; host or cells: K562
# T5 sequence (O14965 1-403): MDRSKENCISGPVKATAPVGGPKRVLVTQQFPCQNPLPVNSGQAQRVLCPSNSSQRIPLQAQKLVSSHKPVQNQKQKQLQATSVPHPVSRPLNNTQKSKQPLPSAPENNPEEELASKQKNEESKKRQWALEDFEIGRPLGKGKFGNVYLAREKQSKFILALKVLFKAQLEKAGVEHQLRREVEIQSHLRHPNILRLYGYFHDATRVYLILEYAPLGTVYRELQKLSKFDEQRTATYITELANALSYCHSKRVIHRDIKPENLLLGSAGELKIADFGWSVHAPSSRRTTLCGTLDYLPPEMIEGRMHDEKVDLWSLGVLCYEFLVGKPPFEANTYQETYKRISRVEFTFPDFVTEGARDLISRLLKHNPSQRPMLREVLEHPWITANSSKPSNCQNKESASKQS
# Protocol: as §1
# [6] = biological target: T6, PRKCA (Homo sapiens, UniProt P17252)
# T6 construct: endogenous in cells; host or cells: K562 lysate
# Protocol: as §1
# [7] = biological target: T7, CDK17 (Homo sapiens, UniProt Q00537);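 as to 0.001 uM KAM: median log10 fold change of treatment over DMSO control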;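 as to 0.01 uM KAM: median log10 fold change of treatment over DMSO control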;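 as to 0.1 uM KAM: median log10 fold change of treatment over DMSO control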;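 as to 1 uM KAM: median log10 fold change of treatment over DMSO control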;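 as to 10 uM KAM: median log10 fold change of treatment over DMSO control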
# T7 construct: endogenous in cells; host or cells: K562 cell lysate
# Protocol: as §1
# [8] = biological target: T8, TTK (Homo sapiens, UniProt P33981);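 as to 0.001 uM KAM: median log10 fold change of treatment over DMSO control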;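 as to 0.01 uM KAM: median log10 fold change of treatment over DMSO control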;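 as to 0.1 uM KAM: median log10 fold change of treatment over DMSO control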;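 as to 1 uM KAM: median log10 fold change of treatment over DMSO control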;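 as to 10 uM KAM: median log10 fold change of treatment over DMSO control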
# T8 construct: endogenous in cells; host or cells: K562
# T8 sequence (P33981 1-857): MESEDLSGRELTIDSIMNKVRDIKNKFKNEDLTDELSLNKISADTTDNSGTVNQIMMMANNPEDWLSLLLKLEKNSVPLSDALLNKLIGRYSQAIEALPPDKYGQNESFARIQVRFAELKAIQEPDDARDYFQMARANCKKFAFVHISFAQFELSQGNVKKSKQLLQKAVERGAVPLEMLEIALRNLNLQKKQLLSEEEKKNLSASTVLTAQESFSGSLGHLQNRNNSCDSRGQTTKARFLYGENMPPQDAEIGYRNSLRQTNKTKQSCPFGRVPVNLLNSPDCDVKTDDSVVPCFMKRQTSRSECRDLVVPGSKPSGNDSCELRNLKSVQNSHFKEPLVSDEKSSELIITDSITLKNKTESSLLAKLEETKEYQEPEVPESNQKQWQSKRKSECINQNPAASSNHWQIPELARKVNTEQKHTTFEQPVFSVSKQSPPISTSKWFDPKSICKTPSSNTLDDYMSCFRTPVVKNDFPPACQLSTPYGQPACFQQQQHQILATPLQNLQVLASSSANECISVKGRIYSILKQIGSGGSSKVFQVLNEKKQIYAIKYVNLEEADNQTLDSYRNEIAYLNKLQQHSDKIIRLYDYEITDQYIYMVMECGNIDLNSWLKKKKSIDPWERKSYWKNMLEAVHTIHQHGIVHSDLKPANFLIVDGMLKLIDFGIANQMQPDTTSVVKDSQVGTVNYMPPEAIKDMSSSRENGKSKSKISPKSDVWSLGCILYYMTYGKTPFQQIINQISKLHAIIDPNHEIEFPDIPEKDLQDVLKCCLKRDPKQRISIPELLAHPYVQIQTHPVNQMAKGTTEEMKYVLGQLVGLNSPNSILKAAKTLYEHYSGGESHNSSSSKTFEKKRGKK
# Protocol: as §1
# [9] = biological target: T9, PRKACA (Homo sapiens, UniProt P17612);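 as to 0.001 uM KAM: median log10 fold change of treatment over DMSO control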;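 as to 0.01 uM KAM: median log10 fold change of treatment over DMSO control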;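 as to 0.1 uM KAM: median log10 fold change of treatment over DMSO control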;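 as to 1 uM KAM: median log10 fold change of treatment over DMSO control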;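 as to 10 uM KAM: median log10 fold change of treatment over DMSO control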
# T9 construct: endogenous in cells; host or cells: K562 lysate
# Protocol: as §1
# [10] = KAM 0.001-10 uM, read-out: RB50 (the source's name)
# [11] = read-out: RB50 (the source's name)
# T7 sequence (Q00537 whole entry): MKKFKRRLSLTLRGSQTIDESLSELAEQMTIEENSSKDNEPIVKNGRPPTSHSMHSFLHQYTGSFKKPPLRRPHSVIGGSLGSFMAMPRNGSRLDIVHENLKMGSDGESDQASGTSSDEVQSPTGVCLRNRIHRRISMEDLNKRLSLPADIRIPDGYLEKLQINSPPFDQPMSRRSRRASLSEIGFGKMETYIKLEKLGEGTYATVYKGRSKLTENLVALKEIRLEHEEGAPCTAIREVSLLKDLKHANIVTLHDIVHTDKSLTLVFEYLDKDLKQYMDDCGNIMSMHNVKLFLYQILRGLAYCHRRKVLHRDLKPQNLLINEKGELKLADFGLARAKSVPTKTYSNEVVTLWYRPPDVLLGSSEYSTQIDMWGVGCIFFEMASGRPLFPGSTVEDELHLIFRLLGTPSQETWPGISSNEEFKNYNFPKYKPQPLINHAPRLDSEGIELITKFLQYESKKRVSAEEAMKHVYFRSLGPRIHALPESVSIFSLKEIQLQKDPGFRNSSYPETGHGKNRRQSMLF
# T2 sequence (P27448 whole entry): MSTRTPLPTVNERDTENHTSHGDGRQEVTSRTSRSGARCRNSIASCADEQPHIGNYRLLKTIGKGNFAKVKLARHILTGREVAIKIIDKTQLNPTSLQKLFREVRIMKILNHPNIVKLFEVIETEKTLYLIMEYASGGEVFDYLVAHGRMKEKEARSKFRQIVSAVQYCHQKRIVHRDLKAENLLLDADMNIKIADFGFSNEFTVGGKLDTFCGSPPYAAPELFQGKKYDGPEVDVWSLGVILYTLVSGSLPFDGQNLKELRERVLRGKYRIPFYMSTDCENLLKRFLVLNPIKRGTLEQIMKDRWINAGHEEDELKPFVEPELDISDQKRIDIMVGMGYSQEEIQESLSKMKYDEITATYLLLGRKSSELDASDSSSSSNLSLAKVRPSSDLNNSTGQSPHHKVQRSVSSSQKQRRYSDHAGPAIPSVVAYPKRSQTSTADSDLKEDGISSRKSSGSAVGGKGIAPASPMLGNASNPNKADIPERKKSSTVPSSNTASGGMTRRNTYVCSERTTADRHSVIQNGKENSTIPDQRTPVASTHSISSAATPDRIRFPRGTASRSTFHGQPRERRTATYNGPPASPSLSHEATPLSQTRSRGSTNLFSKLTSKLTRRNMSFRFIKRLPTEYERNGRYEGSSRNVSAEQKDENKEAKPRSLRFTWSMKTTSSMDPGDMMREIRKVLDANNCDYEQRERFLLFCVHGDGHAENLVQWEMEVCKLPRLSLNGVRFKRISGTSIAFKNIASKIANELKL
# T1 sequence (Q6P0Q8 whole entry): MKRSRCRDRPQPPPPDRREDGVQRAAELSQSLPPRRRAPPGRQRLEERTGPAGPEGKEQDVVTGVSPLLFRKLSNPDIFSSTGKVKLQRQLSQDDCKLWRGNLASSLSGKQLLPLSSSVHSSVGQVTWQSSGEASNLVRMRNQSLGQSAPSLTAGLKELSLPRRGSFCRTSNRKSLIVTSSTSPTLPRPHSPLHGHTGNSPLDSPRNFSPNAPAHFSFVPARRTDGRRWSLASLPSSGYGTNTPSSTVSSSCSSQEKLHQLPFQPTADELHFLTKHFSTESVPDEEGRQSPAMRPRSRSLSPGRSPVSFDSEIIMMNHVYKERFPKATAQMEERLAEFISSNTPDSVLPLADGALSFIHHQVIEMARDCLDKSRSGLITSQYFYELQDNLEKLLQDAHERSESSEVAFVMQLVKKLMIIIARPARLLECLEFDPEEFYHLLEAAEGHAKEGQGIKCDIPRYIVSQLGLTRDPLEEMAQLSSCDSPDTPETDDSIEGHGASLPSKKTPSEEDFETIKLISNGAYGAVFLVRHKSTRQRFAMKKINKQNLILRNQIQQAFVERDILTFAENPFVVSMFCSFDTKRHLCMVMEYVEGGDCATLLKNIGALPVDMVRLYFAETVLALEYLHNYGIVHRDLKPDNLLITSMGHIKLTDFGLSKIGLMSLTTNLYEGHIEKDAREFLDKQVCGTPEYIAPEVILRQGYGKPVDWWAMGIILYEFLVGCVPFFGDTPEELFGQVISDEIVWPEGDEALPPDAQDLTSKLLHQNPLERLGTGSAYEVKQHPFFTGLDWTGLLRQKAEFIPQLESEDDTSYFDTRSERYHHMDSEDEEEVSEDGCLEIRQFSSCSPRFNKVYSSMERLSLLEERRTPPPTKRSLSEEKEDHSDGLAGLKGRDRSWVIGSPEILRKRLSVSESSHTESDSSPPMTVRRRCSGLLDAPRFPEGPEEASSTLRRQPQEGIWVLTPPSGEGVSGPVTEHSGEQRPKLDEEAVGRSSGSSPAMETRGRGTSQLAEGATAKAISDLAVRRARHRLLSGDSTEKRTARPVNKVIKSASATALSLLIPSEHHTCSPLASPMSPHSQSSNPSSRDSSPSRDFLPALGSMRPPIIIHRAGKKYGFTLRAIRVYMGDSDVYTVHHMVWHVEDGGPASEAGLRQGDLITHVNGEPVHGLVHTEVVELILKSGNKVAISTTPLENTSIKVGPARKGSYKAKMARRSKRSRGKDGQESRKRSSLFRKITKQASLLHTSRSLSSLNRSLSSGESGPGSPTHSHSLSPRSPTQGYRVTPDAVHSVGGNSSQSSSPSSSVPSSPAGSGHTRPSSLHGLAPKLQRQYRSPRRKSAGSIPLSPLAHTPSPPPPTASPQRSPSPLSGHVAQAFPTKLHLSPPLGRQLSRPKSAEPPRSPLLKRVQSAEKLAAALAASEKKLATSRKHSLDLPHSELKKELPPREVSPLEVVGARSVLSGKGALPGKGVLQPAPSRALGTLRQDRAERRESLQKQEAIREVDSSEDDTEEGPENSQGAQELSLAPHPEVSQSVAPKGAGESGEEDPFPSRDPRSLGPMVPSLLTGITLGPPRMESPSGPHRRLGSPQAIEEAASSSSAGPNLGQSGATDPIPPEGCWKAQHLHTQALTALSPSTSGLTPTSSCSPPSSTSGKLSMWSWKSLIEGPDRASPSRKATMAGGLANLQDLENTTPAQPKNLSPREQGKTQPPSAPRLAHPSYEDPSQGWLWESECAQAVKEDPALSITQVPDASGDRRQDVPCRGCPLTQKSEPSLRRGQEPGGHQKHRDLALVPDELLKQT
# T3 sequence (P68400 whole entry): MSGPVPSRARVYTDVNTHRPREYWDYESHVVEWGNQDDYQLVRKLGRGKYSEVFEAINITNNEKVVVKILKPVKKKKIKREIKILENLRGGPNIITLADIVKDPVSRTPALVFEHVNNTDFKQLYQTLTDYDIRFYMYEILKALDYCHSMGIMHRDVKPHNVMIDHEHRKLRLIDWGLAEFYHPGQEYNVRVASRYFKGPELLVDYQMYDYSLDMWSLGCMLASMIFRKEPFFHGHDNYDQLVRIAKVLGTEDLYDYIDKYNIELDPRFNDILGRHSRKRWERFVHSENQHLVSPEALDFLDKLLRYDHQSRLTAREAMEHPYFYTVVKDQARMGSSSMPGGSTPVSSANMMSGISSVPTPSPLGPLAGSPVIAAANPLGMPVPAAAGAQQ
smiles,measurement,setting,value
N#CCc1ccc(Nc2nc(NCCCN)cc(Nc3cc(C4CC4)[nH]n3)n2)cc1 [KAM],IC50,[1]; [10],> 10 µM
same,0.001 uM KAM,[1]; relative to 0 uM KAM = 0,-0.0424
same,0.01 uM KAM,[1]; relative to 0 uM KAM = 0,0.0396
same,0.1 uM KAM,[1]; relative to 0 uM KAM = 0,-0.03782
same,1 uM KAM,[1]; relative to 0 uM KAM = 0,-0.1315
same,10 uM KAM,[1]; relative to 0 uM KAM = 0,-0.1411
same,median Log10 fold change,[2]; 0.001 uM KAM,-0.0002127
same,median Log10 fold change,[2]; 0.01 uM KAM,-0.02099
same,median Log10 fold change,[2]; 0.1 uM KAM,-0.2742
same,median Log10 fold change,[2]; 1 uM KAM,-0.5652
same,median Log10 fold change,[2]; 10 uM KAM,-0.6472
same,IC50,[2]; [11],0.16 µM
same,median Log10 fold change,[3]; 0.001 uM KAM,-0.001285
same,median Log10 fold change,[3]; 0.01 uM KAM,-0.02001
same,median Log10 fold change,[3]; 0.1 uM KAM,-0.3204
same,median Log10 fold change,[3]; 1 uM KAM,-0.6577
same,median Log10 fold change,[3]; 10 uM KAM,-0.7357
same,IC50,[3]; [11],0.117 µM
same,IC50,[4]; [10],> 10 µM
same,0.001 uM KAM,[4]; relative to 0 uM KAM = 0,-0.03363
same,0.01 uM KAM,[4]; relative to 0 uM KAM = 0,0.02355
same,0.1 uM KAM,[4]; relative to 0 uM KAM = 0,-0.066
same,1 uM KAM,[4]; relative to 0 uM KAM = 0,-0.08935
same,10 uM KAM,[4]; relative to 0 uM KAM = 0,-0.04979
same,median Log10 fold change,[5]; 0.001 uM KAM,0.0112
same,median Log10 fold change,[5]; 0.01 uM KAM,-0.01229
same,median Log10 fold change,[5]; 0.1 uM KAM,-0.2365
same,median Log10 fold change,[5]; 1 uM KAM,-0.473
same,median Log10 fold change,[5]; 10 uM KAM,-0.552
same,IC50,[5]; [11],0.257 µM
same,median Log10 fold change,[6]; 0.001 uM KAM,-0.02328
same,median Log10 fold change,[6]; 0.01 uM KAM,-0.03535
same,median Log10 fold change,[6]; 0.1 uM KAM,-0.1377
same,median Log10 fold change,[6]; 1 uM KAM,-0.1636
same,median Log10 fold change,[6]; 10 uM KAM,-0.4501
same,IC50,[6]; [11],3.16 µM
same,IC50,[7]; [10],> 10 µM
same,0.001 uM KAM,[7]; relative to 0 uM KAM = 0,-0.02399
same,0.01 uM KAM,[7]; relative to 0 uM KAM = 0,-0.01557
same,0.1 uM KAM,[7]; relative to 0 uM KAM = 0,-0.06864
same,1 uM KAM,[7]; relative to 0 uM KAM = 0,-0.1892
same,10 uM KAM,[7]; relative to 0 uM KAM = 0,-0.2802
same,IC50,[8]; [10],> 10 µM
same,0.001 uM KAM,[8]; relative to 0 uM KAM = 0,-0.02414
same,0.01 uM KAM,[8]; relative to 0 uM KAM = 0,0.009793
same,0.1 uM KAM,[8]; relative to 0 uM KAM = 0,-0.08807
same,1 uM KAM,[8]; relative to 0 uM KAM = 0,-0.1446
same,10 uM KAM,[8]; relative to 0 uM KAM = 0,-0.2103
same,IC50,[9]; [10],> 10 µM
same,0.001 uM KAM,[9]; relative to 0 uM KAM = 0,0.01517
same,0.01 uM KAM,[9]; relative to 0 uM KAM = 0,-0.007672
same,0.1 uM KAM,[9]; relative to 0 uM KAM = 0,0.08573
same,1 uM KAM,[9]; relative to 0 uM KAM = 0,0.0122
same,10 uM KAM,[9]; relative to 0 uM KAM = 0,0.04616
